Data taken from patent publication US10130611B2, “Use of benzo-heterocycle derivatives for preventing and treating cancer or for inhibiting cancer metastasis” (MEDICINAL BIOCONVERGENCE RESEARCH CENTER, priority 2009, dated 2018).

What was measured:
[1] = molecular target: T1, intracellular interaction between KRS and 67LR (Homo sapiens, UniProt Q15046); test: Co-immunoprecipitation of KRS with 67LR in cells treated with KL1; assay type: cell-based
T1 construct: endogenous in cells
Method: (§1) As a control, an OD level of cells treated with DMSO was measured. FIG. 32 is a photograph showing cell growth in wells containing yeast cells having indicated interaction pairs in the presence or absence of CAND-KL1. In FIG. 33, in 293 cells, through co-immunoprecipitation, the KL1-dose-dependent effect on the interaction between KRS and 67LR was tested. The cells were treated with KL1 for 3 hours, 67LR was immunoprecipitated, and co-precipitation of KRS was determined by western blotting. In FIG. 34, in the presence of KL1 in indicated levels, a laminin receptor labeled with radioisotope was mixed with GST-KRS (1 μg). GST-KRS was precipitated with glutathione-Sepharose beads, and co-precipitated laminin receptor was detected with autoradiography. In FIG. 35, in A549 cells, the effect of KL1 on the intracellular level of 67LR and 37LRP was tested with western blotting. […] GST-KRS was immobilized on a CM5 Sensor Chip, and the binding was measured by a resonance unit (RU) at indicated concentrations (indicated by different colors). […]
(§2) From among the compounds, the inventors also examined whether the compound represented by Formula 15 (indicated by CAND-KL1, and KL1) can inhibit the intracellular interaction between KRS and 67LR. […] Then, 67LR was immunoprecipitated with its antibody, and co-immunoprecipitation of KRS was determined. […]

[2] = molecular target: T2, KRS-AIMP2 (Homo sapiens, UniProt Q15046); test: Yeast two hybrid specificity test, LexA-KRS/B42-AIMP2 pair; assay type: cell-based; conditions: compound at 50 μg/ml, DMSO control 1.3204
T2 construct: expressed in transfected cells; host or cells: yeast (EGY/SH is stated for the KRS/LR pair)
Method: On the compound of the present invention obtained by screening a library of compounds, the extent of inhibition on the interaction between KRS and laminin receptor (67LR) was determined by a yeast two hybrid assay, as described below. KRS, LR, AIMP2, AIMP3 and MRS were cloned at LexA vector (clontech) and B42 vector (clontech) each so as to produce required vectors. From among the vectors, LexA-KRS vector and B42-LR vector were co-transformed into yeast EGY/SH cells, and then the yeast cells were diluted to an absorbance (540 nm wavelength) of 0.2 in galactose medium not containing uracil (Ura), histidine (His), tryptophane (Trp) and leucine (Leu), and placed in an amount of 200 u in a 96 well plate. 1 μl of each compound at a concentration of 10 mg/ml was placed in each well, incubated for 6 days, and the absorbance was measured at 540 nm. […] The inhibitory specificity of the selected compound was tested by using two different interaction pairs such as LexA-KRS/B42-AIMP2 and LexA-MRS/B42-AIMP3. […]

[3] = tested on: A549 cells; test: Western blotting of 67LR and 37LRP levels in A549 cells; assay type: cell-based, human; conditions: KL1 in different amounts
Method: as §1, §2

T1 sequence (Q15046 2-597 limits assumed): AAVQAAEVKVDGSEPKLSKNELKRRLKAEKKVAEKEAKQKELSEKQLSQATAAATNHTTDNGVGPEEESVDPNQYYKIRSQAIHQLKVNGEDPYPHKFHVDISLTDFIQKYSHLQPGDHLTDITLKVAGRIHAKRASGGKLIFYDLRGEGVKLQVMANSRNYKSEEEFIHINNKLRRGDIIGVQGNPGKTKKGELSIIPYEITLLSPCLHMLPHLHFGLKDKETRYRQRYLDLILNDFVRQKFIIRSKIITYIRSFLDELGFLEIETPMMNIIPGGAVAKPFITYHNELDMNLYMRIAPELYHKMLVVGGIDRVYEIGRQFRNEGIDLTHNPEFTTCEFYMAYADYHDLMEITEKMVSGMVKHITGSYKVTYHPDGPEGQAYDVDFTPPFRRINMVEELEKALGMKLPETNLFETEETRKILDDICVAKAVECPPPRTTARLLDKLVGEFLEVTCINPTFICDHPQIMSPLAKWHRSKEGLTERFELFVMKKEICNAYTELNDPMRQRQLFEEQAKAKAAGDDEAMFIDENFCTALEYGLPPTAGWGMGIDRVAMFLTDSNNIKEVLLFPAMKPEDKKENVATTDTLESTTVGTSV
T2 sequence (Q15046 whole entry): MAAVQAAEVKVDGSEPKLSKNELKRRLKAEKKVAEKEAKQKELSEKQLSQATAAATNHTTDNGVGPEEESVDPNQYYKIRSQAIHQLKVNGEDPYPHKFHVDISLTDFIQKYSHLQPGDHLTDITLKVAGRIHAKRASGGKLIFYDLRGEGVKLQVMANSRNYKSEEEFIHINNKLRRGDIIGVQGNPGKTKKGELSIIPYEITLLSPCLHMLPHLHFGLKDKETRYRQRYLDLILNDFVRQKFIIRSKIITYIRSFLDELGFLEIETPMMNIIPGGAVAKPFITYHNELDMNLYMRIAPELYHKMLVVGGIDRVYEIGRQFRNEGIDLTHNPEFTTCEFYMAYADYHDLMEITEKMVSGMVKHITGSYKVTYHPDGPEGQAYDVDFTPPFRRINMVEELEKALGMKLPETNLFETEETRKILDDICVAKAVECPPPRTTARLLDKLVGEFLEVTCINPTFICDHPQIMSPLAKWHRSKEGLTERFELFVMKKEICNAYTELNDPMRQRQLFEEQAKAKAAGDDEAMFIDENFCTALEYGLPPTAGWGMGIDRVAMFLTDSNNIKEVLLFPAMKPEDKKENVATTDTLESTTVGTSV

For `CCC(C(=O)O)n1/c(=N/C(=O)c2ccc(C)cc2)sc2ccccc21` (centres unmarked) [Compound of formula 15, 2-[2-(4-Methyl-benzoylimino)-benzothiazol-3-yl]-butyric acid], the “level of KRS co-precipitated with 67LR” value ([1]; cells treated with KL1 at different concentrations, 3 hours, 67LR immunoprecipitated) was “decreased according the increase of KL1 level”, the “intracellular levels of KRS and 67LR” value ([1]; same co-immunoprecipitation experiment (FIG. 33)) was “not changed” and the “KRS-AIMP2 (yeast growth, OD level)” value [2] was 0.9497. For the same compound, the “cytoplasmic 37LRP level” value [3] was “no effect” and the “intracellular level of 67LR” value [3] was “decreased by the amount of added KL1”.
